Laboratory results as given in patent publication US10864216B2, “Phenothiazine diaminium salts and their use” (WisTa Laboratories Ltd., priority 2011, dated 2020).
Marks after values point to notes of the source that are not given here. One block for each compound: values may come before it.

Columns and labels:
[1] = molecular target: T1, truncated tau (amino acids 297-391) in solution binding to solid-phase bound truncated tau (residues 297-390) (Homo sapiens, UniProt P10636); experiment: Solid phase assay for tau aggregation (tau-tau binding, B50); conditions: concentration at which tau-tau binding is decreased by 50%; mean ± SE
T1 construct: made in house
T1 sequence (P10636 614-708): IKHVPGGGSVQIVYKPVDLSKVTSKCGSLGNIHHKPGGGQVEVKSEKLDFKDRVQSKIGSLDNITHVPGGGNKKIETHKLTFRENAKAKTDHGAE
T1 sequence (P10636 614-707): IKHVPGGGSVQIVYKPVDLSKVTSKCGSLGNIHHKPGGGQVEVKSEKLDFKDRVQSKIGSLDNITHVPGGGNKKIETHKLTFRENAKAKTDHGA
Description: The tau-tau aggregation assay uses purified recombinant tau fragments in a solid-phase immunoassay. Methods are described in detail in e.g. WO 96/30766. Briefly, the assay measures the binding of truncated tau (amino acids 297-391) in solution to solid-phase bound truncated tau (residues 297-390). Binding of the former is detected with the antibody mAb 423, which specifically recognises peptides containing a C-terminal Glu-391 residue. The Tau complex formed in vitro is similar to the aggregated complex that forms in Alzheimer's disease as a consequence of the stability of the pathological Tau-Tau binding interaction through a 94/95-amino acid repeat domain (residues 297-390), found in the proteolytically stable core of the paired helical filament.
The B50 value (expressed as mean±SE) is determined as the concentration of compound at which tau-tau binding is decreased by 50%.

[2] = molecular target: full-length human tau protein (htau40) and truncated tau (295-390, dGA) in 3T6 mouse cells (Homo sapiens, UniProt P10636); experiment: Cell-based tau aggregation assay
[3] = tested on: rat, stomach (non glandular); experiment: Gastric irritation: 28-day rat study with MTC or LMT.2HBr; format: in vivo; design: key to Gastritis, grade 3 (moderate): incidence / Inflammatory cell infiltration, grade 1 (minimal): incidence / Gastritis, grade 1 (minimal): incidence / Gastritis, grade 2 (slight): incidence / Gastritis, grade 3: incidence predicted with 10 per group / Gastritis, grade 1: incidence predicted with 10 per group / Gastritis, grade 2: incidence predicted with 10 per group: “—” = finding not present; 1 = minimal; 2 = slight; 3 = moderate; 4 = moderately severe; 5 = severe; conditions: 90 mg/kg/day; for Gastritis, total incidence predicted with 10 per group: number of animals of 10; for Gastritis, grade 1: incidence predicted with 10 per group / Gastritis, grade 2: incidence predicted with 10 per group / Gastritis, grade 3: incidence predicted with 10 per group: scaled from 5 to 10 examined
rats = experiment: Studies on the hemopoietic system (methemoglobinemia), rat; format: in vivo
[4] = Solubility of LMT salts in aqueous HCl solutions at 37° C.; format: physicochemical; conditions: lower limit complete dissolution, upper limit saturation
Protocol: Two aqueous solutions (pH 2.00 and 3.01 at 21.4° C.) were prepared by carefully adding HCl (5 M) to deionised water. In each experiment a 5 ml aliquot of one of the aforementioned solutions was heated to 37° C. […] This step was repeated until no further dissolution took place.

rat = experiment: 6-month study of LMT.2HBr in the rat; format: in vivo; conditions: high dose 45 mg MT/kg/day
Description: The decreased neutrophils or neutropaenia observed after LMT.2HBr although reversible would make patients more susceptible to bacterial infections as their primary role is in destruction of bacteria.

minipigs = experiment: Studies on the hemopoietic system (methemoglobinemia), minipig; format: in vivo
Protocol: Studies on the hemopoietic system were performed in rat, monkey and minipig.

female Wistar rats = experiment: 14 day oral administration to rats: toxicology and neutrophil response; format: in vivo; conditions: for Neutrophils (total neutrophils as percentage of total white cells) / Dose-related deaths / Early neutrophils (frequency of presence of immature neutrophils per animal group): 14 days oral; for Neutrophils (total neutrophils as percentage of total white cells): 95 mg MT/kg/day Days 1-10, 60 mg MT/kg/day Days 11-14; for Dose-related deaths: animal numbers per group of 8 rats; for Early neutrophils (frequency of presence of immature neutrophils per animal group): animals per group of 8
Description: Table: Neutrophil response in rats following 14 day oral administration of different salt forms of LMT.

[5] = female rats, 28-day, terminal kill, 5 examined, cell = number of animals
[6] = female rats, cell = number of animals
[7] = male rats, 28-day, terminal kill, 5 examined, cell = number of animals
[8] = male rats, cell = number of animals
[9] = aqueous HCl solution pH 2.00 (21.4° C.)
[10] = aqueous HCl solution pH 3.01 (21.4° C.)

IC50 [1]: > 500 µM
SMILES: O=S(=O)(O)CCS(=O)(=O)O [EDSA, ethanedisulfonic acid, reference compound]

SMILES: CN(C)c1ccc2c(c1)Sc1cc(N(C)C)ccc1N2 [LMT.2EsOH, N,N,N′,N′-Tetramethyl-10H-phenothiazine-3,7-diaminium bis(ethanesulfonate)]
THx, therapeutic index (THx = LD50/EC50) ([2]; listed as LMT•2EsOH): 100
EC50 (μM) ([2]; listed as LMT•2EsOH): 0.52 ± 0.13 (n = 3) μM
IC50 [1]: 297 ± 75.1 µM

SMILES: CN(C)c1ccc2c(c1)Sc1cc(N(C)C)ccc1N2 [LMT.2HBr, N,N,N′,N′-tetramethyl-10H-phenothiazine-3,7-diaminium di(bromide)]
Gastritis, grade 1 (minimal): incidence [3, 5]: —
Gastritis, grade 2 (slight): incidence [3, 5]: 1
Gastritis, grade 3 (moderate): incidence [3, 5]: 1
Inflammatory cell infiltration, grade 1 (minimal): incidence [3, 5]: —
Gastritis, total incidence predicted with 10 per group ([3]; female rats): 4
Gastritis, grade 1: incidence predicted with 10 per group [3, 6]: —
Gastritis, grade 2: incidence predicted with 10 per group [3, 6]: 2
Gastritis, grade 3: incidence predicted with 10 per group [3, 6]: 2
Gastritis, grade 1 (minimal): incidence [3, 7]: 1
Gastritis, grade 2 (slight): incidence [3, 7]: —
Gastritis, grade 3 (moderate): incidence [3, 7]: 1
Gastritis, total incidence predicted with 10 per group ([3]; male rats): 4
Gastritis, grade 1: incidence predicted with 10 per group [3, 8]: 2
Gastritis, grade 2: incidence predicted with 10 per group [3, 8]: —
Gastritis, grade 3: incidence predicted with 10 per group [3, 8]: 2
Lowest dose at which methemoglobinemia was observed (rats): 15 mg MT/kg/day
Solubility g/5 ml (37° C.) [4, 9]: 4.822-5.096 g/5 ml
Solubility g/5 ml (37° C.) [4, 10]: 4.726-5.236 g/5 ml
Mature neutrophils and granulocytes in the bone marrow (rat): Decreased numbers of mature neutrophils and granulocytes
Lowest dose at which methemoglobinemia was observed (minipigs): 10 mg MT/kg/day
Neutropaenia in prepared blood smears (mature neutrophils) (female Wistar rats; 14 days): marked depletion of mature neutrophils
Numbers of neutrophilic granulocytes in the bone marrow (female Wistar rats; 14 days): considerably greater
Treatment-related deaths (female Wistar rats; 14 days): Treatment-related deaths occurred
Neutrophils (total neutrophils as percentage of total white cells) (female Wistar rats): 3.00%*
Dose-related deaths (female Wistar rats): 2/8
Early neutrophils (frequency of presence of immature neutrophils per animal group) (female Wistar rats): 8/8
THx, therapeutic index (THx = LD50/EC50) ([2]; listed as LMT•2HBr): 92
EC50 (μM) ([2]; listed as LMT•2HBr): 0.66 ± 0.15 (n = 8) μM
IC50 [1]: 472 ± 27.6 µM

SMILES: CN(C)c1ccc2c(c1)Sc1cc(N(C)C)ccc1N2.Cl.Cl [LMT.2HCl, N,N,N′,N′-tetramethyl-10H-phenothiazine-3,7-diaminium dichloride]
Solubility g/5 ml (37° C.) [4, 9]: 4.404-4.961 g/5 ml
Solubility g/5 ml (37° C.) [4, 10]: 4.978-6.029 g/5 ml
Neutropaenia in prepared blood smears (mature neutrophils) (female Wistar rats; 14 days): no decrease
Neutrophils (total neutrophils as percentage of total white cells) (female Wistar rats): 19.90%
Dose-related deaths (female Wistar rats): 0/8
Early neutrophils (frequency of presence of immature neutrophils per animal group) (female Wistar rats): 2/8
THx, therapeutic index (THx = LD50/EC50) [2]: 102
IC50 [1]: 361 ± 38.2 µM

SMILES: CN(C)c1ccc2c(c1)Sc1cc(N(C)C)ccc1N2 [LMT.2TsOH, N,N,N′,N′-Tetramethyl-10H-phenothiazine-3,7-diaminium bis(p-toluenesulfonate)]
THx, therapeutic index (THx = LD50/EC50) ([2]; bis(p-toluenesulfonate)): 140
IC50 [1]: 296 ± 37.9 µM

SMILES: CN(C)c1ccc2c(c1)Sc1cc(N(C)C)ccc1N2 [LMT.EDSA, N,N,N′,N′-Tetramethyl-10H-phenothiazine-3,7-diaminium ethanedisulfonate]
THx, therapeutic index (THx = LD50/EC50) ([2]; listed as LMT•EDSA): 115
EC50 (μM) ([2]; listed as LMT•EDSA): 0.68 ± 0.32 (n = 4) μM
IC50 [1]: 400 ± 17.6 µM

SMILES: CN(C)c1ccc2c(c1)Sc1cc(N(C)C)ccc1N2 [LMT.NDSA, N,N,N′,N′-Tetramethyl-10H-phenothiazine-3,7-diaminium naphthalenedisulfonate]
THx, therapeutic index (THx = LD50/EC50) ([2]; listed as LMT•NDSA): 108
EC50 (μM) ([2]; listed as LMT•NDSA): 0.71 ± 0.34 (n = 4) μM
IC50 [1]: 334 ± 63.2 µM

SMILES: CS(=O)(=O)O [MSA, methansulfonic acid, reference compound]
IC50 [1]: > 500 µM
